US20260224716A1, “PTH ANALOGS FOR THE TREATMENT OF HYPOPARATHYROIDISM” (priority 2020, published 2026)
“And” between values parts separate entries of the source, which are not always exact repeats. Identical values can stand only once. Blank lines part the entries; values can stand above or below the molecule they belong to. Where a SMILES comes first, the peptide text is derived from it. [ ]: non-standard residue; d: D form. Aib = CC(C)(N)C(=O)O

Legend:
PTH1 receptor = target: T1, PTH1 receptor (Homo sapiens, UniProt Q03431); assay: Luciferase-based reporter gene assay for cAMP detection (HEK293 cells); type: cell-based; conditions: FIG. 4; luciferase reporter of cAMP production
T1 construct: expressed in transfected cells; host or cells: HEK293
T1 sequence (Q03431 27-593): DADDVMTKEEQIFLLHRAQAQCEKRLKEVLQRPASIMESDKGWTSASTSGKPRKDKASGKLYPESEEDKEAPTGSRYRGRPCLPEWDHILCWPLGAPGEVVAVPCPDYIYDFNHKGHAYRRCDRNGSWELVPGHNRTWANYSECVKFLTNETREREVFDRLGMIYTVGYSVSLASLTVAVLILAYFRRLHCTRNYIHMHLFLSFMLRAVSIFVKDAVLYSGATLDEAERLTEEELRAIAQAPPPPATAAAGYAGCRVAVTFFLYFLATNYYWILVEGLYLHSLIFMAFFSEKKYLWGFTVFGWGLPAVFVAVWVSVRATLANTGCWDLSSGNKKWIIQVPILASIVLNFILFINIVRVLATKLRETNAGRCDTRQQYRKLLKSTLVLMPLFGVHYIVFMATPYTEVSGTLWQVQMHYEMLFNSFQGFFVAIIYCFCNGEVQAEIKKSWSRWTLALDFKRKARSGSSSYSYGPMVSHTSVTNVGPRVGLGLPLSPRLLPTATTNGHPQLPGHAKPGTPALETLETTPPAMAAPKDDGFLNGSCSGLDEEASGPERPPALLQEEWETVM
Protocol: At the end of the incubation, 50 μL of Steady-Lite Plus (PerkinElmer, Waltham, MA) were added to each well. The plate was shaken briefly, incubated four minutes and light output was measured on an EnSpire Alpha Multi-mode Plate Reader (PerkinElmer, Waltham, MA).

PTHR1 = target: T2, PTHR1 (Homo sapiens, UniProt Q03431); assay: cAMP Hunter Teriparatide Bioassay (CHO-K1 PTHR1 cells); type: cell-based
T2 construct: host or cells: CHO-K1
T2 sequence (Q03431 27-593): T1 sequence (Q03431 27-593)

serum calcium [1] = assay: Pharmacology in normal mice: serum calcium (Example 6); type: in vivo, C57Bl6/J mice; conditions: FIG. 5C, 20 or 40 nmol/kg SC, 24 and 48 hours
Protocol: Each group of mice was bled immediately before the injection and after 24 and 48 hours. Blood was centrifuges and serum was collected and stored at −20 C. Calcium concentrations were determined used commercially available assays following the manufacturer's instructions.

serum calcium [2] = assay: Serum calcium in mice after single subcutaneous SEQ ID NO: 77 (Example 9); type: in vivo, C57BL/6J mice; conditions: for Percent change of serum Ca levels: 24 hr vs 0 hr
Protocol: Absorbance (Ab) was measured at 650 nm wavelength. Manufacturer linearity is provided up to 15 mg/dl. […] This difference was statistically significant at 24 hours when accounting for the initial baseline levels (FIG. 14B). There was an increase in serum Ca at 24 hours following the dose of 40 nmol/kg.

serum calcium [3] = assay: Serum calcium in rats, repeat daily dosing 7 days (Example 13); type: in vivo, Sprague-Dawley rats; conditions: daily SC 7 days; SEQ ID NO: 77 20 nmol/kg, SEQ ID NO: 87 20 or 40 nmol/kg; returned to initial values after washout
Protocol: (§1) Female Sprague-Dawley rats were single or double-housed and randomly assigned to four groups (n=5-6 per group) as described in Table 20, and then weighed.
(§2) After the treatment ceased, the animals were monitored on days 9 and 11 (washout period).
(§3) Body weight and food intake were measured on days 0, 1, 3, 5 and 7. Ca was measured on days 0, 1, 2, 3, 4, 7, 9 and 11. Pi was determined on the same samples, except for days 9 and 11.

serum phosphate [4] = assay: Serum phosphate in rats, repeat daily dosing 7 days (Example 13); type: in vivo, Sprague-Dawley rats; conditions: daily SC, SEQ ID NO: 77 20 nmol/kg
Protocol: as §1, §2, §3

[5] = Plasma drug levels in rats, repeat daily dosing 7 days, LCMS (Example 13); type: in vivo, Sprague-Dawley rats; conditions: daily SC dosing
Protocol: as §1, §2, §3

[6] = Pharmacokinetics of SEQ ID 87 in monkeys, single subcutaneous dose (Example 17); type: in vivo, cynomolgus monkeys
[7] = Pharmacokinetics in rats after single subcutaneous dose, LCMS (Example 10)
[8] = Rate of model dipeptide cleavage from hexapeptide in PBS (HPLC, LC-MS); type: physicochemical; conditions: buffer
Protocol: The solution was incubated at 37° C.
The flow rate was 1 ml/min.

serum calcium [9] = assay: Pharmacology in normal rats: serum calcium (Example 5); type: in vivo, Sprague Dawley rats; conditions: FIG. 5A; 20, 40, 80 nmol/kg SC, dose-responsive over 72 hours
Protocol: (§4) Each group of rats was bled immediately before the injection and after 6, 24, 48 and 72 hours. Blood was spun and serum was collected and stored at −20° C. Calcium and phosphorous concentrations were determined used commercially available assays following the manufacturer's instructions.

serum phosphate [10] = assay: Pharmacology in normal rats: serum phosphate (Example 5); type: in vivo, Sprague Dawley rats; conditions: FIG. 5B; 20, 40, 80 nmol/kg SC, dose-responsive over 72 hours
Protocol: as §4

[11] = test system: calcium urinary excretion; conditions: humans, 100 ug subcutaneous; adequate control limited to only ⅓ of the day; cited from earlier work
[12] = rats, SEQ ID NO: 77 30 nmol/kg SC
[13] = rats, after SEQ ID NO: 87 30 nmol/kg SC

potency at the PTH receptor (PTH1 receptor): retains the high potency
EC50 (PTHR1; FIG. 11, active drug): 10 pM
Hillslope (PTHR1; FIG. 11, active drug): 1.874
EC50 (PTHR1; FIG. 12): 36.6 pM
Hillslope (PTHR1; FIG. 12): 2.237
EC50 (PTHR1; FIG. 13A): 10.7 pM
Hillslope (PTHR1; FIG. 13A): 2.687
EC50 (PTHR1; FIG. 13B): 19.3 pM
Hillslope (PTHR1; FIG. 13B): 2.687
PTH agonism (PTHR1; conclusions from Table 14, FIGS. 8A-8C): inactivates the PTH agonism
daily administrations to reach steady state plasma levels [5]: four
time of peak concentration of drug formed from prodrug ([6]; after SEQ ID No 87 2.5, 3.75, 5 nmol/kg SC): 48 to 72 h
concentration as fraction of the Cmax concentration ([6]; drug formed from prodrug, at one week): approximately ⅔
level at time molar at 2 h ([7]; female, Sprague-Dawley, rat, serum, sc, 30 nmol/kg): > 100 nM
time at baseline level [7, 12]: 96 h
time of peak concentration [7, 12]: seven
concentration as fraction of the Cmax ([7]; rats, SEQ ID NO: 77 30 nmol/kg SC, at 48 h): ⅓
time of peak of drug formed from prodrug [7, 13]: 24 h
time of return to baseline, drug formed from prodrug [7, 13]: one week
Molecule: CC[C@H](C)[C@H](NC(=O)[C@H](CCC(=O)O)NC(=O)[C@H](CO)NC(=O)[C@@H](NC(=O)[C@@H](N)CO)C(C)C)C(=O)N[C@@H](CCC(N)=O)C(=O)N[C@@H](CC(C)C)C(=O)N[C@@H](CCSC)C(=O)N[C@@H](Cc1c[nH]cn1)C(=O)N[C@@H](CC(N)=O)C(=O)N[C@@H](CC(C)C)C(=O)NCC(=O)N[C@@H](CCCCN)C(=O)N[C@@H](Cc1c[nH]cn1)C(=O)N[C@@H](CC(C)C)C(=O)N[C@@H](CC(N)=O)C(=O)N[C@@H](CO)C(=O)N[C@@H](CCSC)C(=O)N[C@@H](CCC(=O)O)C(=O)N[C@@H](CCCNC(=N)N)C(=O)N[C@H](C(=O)N[C@@H](CCC(=O)O)C(=O)N[C@@H](Cc1c[nH]c2ccccc12)C(=O)N[C@@H](CC(C)C)C(=O)N[C@@H](CCCNC(=N)N)C(=O)N[C@@H](CCCCN)C(=O)N[C@@H](CCCCN)C(=O)N[C@@H](CC(C)C)C(=O)N[C@@H](CCC(N)=O)C(=O)N[C@@H](CC(=O)O)C(=O)N[C@H](C(=O)N[C@@H](Cc1c[nH]cn1)C(=O)N[C@@H](CCCCNC(=O)CC[C@H](NC(=O)COCCOCCNC(=O)COCCOCCNC(=O)CC[C@H](NC(=O)CCCCCCCCCCCCCCCCC(=O)O)C(=O)O)C(=O)O)C(=O)O)C(C)C)C(C)C [SEQ ID NO: 77]
effect on serum calcium levels (serum calcium [1]): increase serum calcium levels
Percent change of serum Ca levels (serum calcium [2]; 20 nmol/kg SC): 13.8%
Serum Ca change (serum calcium [2]; 20 nmol/kg SC, 24 hr vs 0 hr (nmol/ul)): 0.3131
Serum Ca change (serum calcium [2]; 20 nmol/kg SC, 48 hr vs 0 hr): 0.0709
serum Ca levels compared to controls or 20 nmol/kg (serum calcium [2]; 40 nmol/kg SC, 24 and 48 hours post treatment): significantly increased serum Ca levels
Percent change of serum Ca levels (serum calcium [2]; 40 nmol/kg SC): 26.2%
Serum Ca change (serum calcium [2]; 40 nmol/kg SC, 24 hr vs 0 hr (nmol/uL)): 0.631
Serum Ca change (serum calcium [2]; 40 nmol/kg SC, 48 hr vs 0 hr): 0.073
Serum Calcium Conc., individual mouse (serum calcium [2]; Group F (20 nmol/kg by match with Table 11), 0 hour): 8.9502 mg/dl and 2.2375 nmol/uL and 8.8662 mg/dl and 2.2165 nmol/uL and 9.3810 mg/dl and 2.3453 nmol/uL and 9.3774 mg/dl and 2.3443 nmol/uL and 10.2136 mg/dl and 2.5534 nmol/uL and 9.6513 mg/dl and 2.4128 nmol/uL and 8.7165 mg/dl and 2.1791 nmol/uL and 7.4968 mg/dl and 1.8742 nmol/uL
Serum Calcium Conc., individual mouse (serum calcium [2]; Group F (20 nmol/kg by match with Table 11), 24 hours): 9.1693 mg/dl and 2.2923 nmol/uL and 9.4988 mg/dl and 2.3747 nmol/uL and 9.8423 mg/dl and 2.4606 nmol/uL and 11.4721 mg/dl and 2.8680 nmol/uL and 10.9604 mg/dl and 2.7401 nmol/uL and 10.4767 mg/dl and 2.6192 nmol/uL and 9.1062 mg/dl and 2.2766 nmol/uL and 12.1451 mg/dl and 3.0363 nmol/uL
Serum Calcium Conc., individual mouse (serum calcium [2]; Group F (20 nmol/kg by match with Table 11), 48 hours): 8.8303 mg/dl and 2.2076 nmol/uL and 9.1467 mg/dl and 2.2867 nmol/uL and 8.8431 mg/dl and 2.2108 nmol/uL and 7.3666 mg/dl and 1.8416 nmol/uL and 8.7057 mg/dl and 2.1764 nmol/uL and 9.7411 mg/dl and 2.4353 nmol/uL and 8.7472 mg/dl and 2.1868 nmol/uL and 9.0029 mg/dl and 2.2507 nmol/uL
Serum Calcium Conc., individual mouse (serum calcium [2]; Group G (40 nmol/kg by match with Table 11), 0 hour): 9.4650 mg/dl and 2.3663 nmol/uL and 10.0310 mg/dl and 2.5078 nmol/uL and 9.9105 mg/dl and 2.4776 nmol/uL and 8.8662 mg/dl and 2.2165 nmol/uL and 10.1369 mg/dl and 2.5342 nmol/uL and 10.6007 mg/dl and 2.6502 nmol/uL and 9.6001 mg/dl and 2.4000 nmol/uL and 8.5266 mg/dl and 2.1316 nmol/uL
Serum Calcium Conc., individual mouse (serum calcium [2]; Group G (40 nmol/kg by match with Table 11), 24 hours): 13.6768 mg/dl and 3.4192 nmol/uL and 11.5422 mg/dl and 2.8856 nmol/uL and 12.7305 mg/dl and 3.1826 nmol/uL and 11.5563 mg/dl and 2.8891 nmol/uL and 13.0880 mg/dl and 3.2720 nmol/uL and 11.5633 mg/dl and 2.8908 nmol/uL and 11.7070 mg/dl and 2.9267 nmol/uL and 11.4651 mg/dl and 2.8663 nmol/uL
Serum Calcium Conc., individual mouse (serum calcium [2]; Group G (40 nmol/kg by match with Table 11), 48 hours): 10.2589 mg/dl and 2.5647 nmol/uL and 9.0764 mg/dl and 2.2691 nmol/uL and 10.0607 mg/dl and 2.5152 nmol/uL and 9.2554 mg/dl and 2.3138 nmol/uL and 9.9968 mg/dl and 2.4992 nmol/uL and 9.9425 mg/dl and 2.4856 nmol/uL and 10.6168 mg/dl and 2.6542 nmol/uL and 10.2429 mg/dl and 2.5607 nmol/uL
serum Ca at 48 hours post treatment (serum calcium [2]; all treatments, 20 or 40 nmol/kg SC): returned to near starting levels
Serum Ca levels during the treatment period (serum calcium [3]): gradually increased
serum Pi on day 3 versus vehicle and SEQ ID NO: 87 40 nmol/kg (serum phosphate [4]): differed significantly

half-life at 1 mg/ml [8]: 32 h
Molecule: C[C@@H](O)[C@H](NC(=O)CNC(=O)[C@H](CCCNC(=N)N)NC(=O)[C@H](CO)NC(=O)[C@H](Cc1c[nH]cn1)NC(=O)[C@@H]1CCCN1C(=O)C(C)(C)N)C(=O)N[C@@H](Cc1ccccc1)C(N)=O [compound 14] (H-[Aib]PHSRGTF-NH2)

half-life at 1 mg/ml [8]: 16 h
Molecule: C[C@@H](O)[C@H](NC(=O)CNC(=O)[C@H](CCCNC(=N)N)NC(=O)[C@H](CO)NC(=O)[C@@H](Cc1c[nH]cn1)NC(=O)[C@@H]1CCCN1C(=O)C(C)(C)N)C(=O)N[C@@H](Cc1ccccc1)C(N)=O [compound 16] (H-[Aib]P[dH]SRGTF-NH2)

Molecule: SVSEIQLMHNLGKHLNSMERVEWLRKKLQDVHK(γE-COC16H32CO2H)-OH [SEQ ID NO: 74]
effect on serum calcium levels (serum calcium [1]): increase serum calcium levels

Molecule: SVSEIQLMHNLGKHLNSMERVEWLRKKLQDVHK(γE-COC16H32CO2H)F-OH (SVSEIQLMHNLGKHLNSMERVEWLRKKLQDVHXF; K33 γE-diacidC18 acylation; C-terminal acid; SITE 33 MISC_FEATURE - Xaa at position 33 is Lys wherein the side chain is acylated with COC16H32CO2H via a gamma Glu spacer; listed as Homo sapiens) [SEQ ID NO: 102, PTH(1-34), K33(γE-diacidC18)]
effect on serum calcium levels (serum calcium [9]): increase serum calcium levels
effect on serum phosphate (serum phosphate [10]): reduce serum phosphate
effect on serum calcium levels (serum calcium [1]): increase serum calcium levels

B1: Natpara: NPS/Shire's Natpara® (rhPTH), approved by the FDA in January of 2015 (protein, listed as Homo sapiens)
chain: SVSEIQLMHNLGKHLNSMERVEWLRKKLQDVHNFVALGAPLAPRDAGSQRPRKKEDNVLVESHEKSLGEADKADVNVLTKAKSQ
duration of action on calcium [11]: insufficient duration of action
